Tested on: 699152-130-R-J1-PDC complex spheroid viability
Assay: Anticancer human tumor 699152-130-R-J1-PDC patient-derived pancreatic carcinoma cell line growth inhibition [POLQ]
Settings: for IC50: curve of first compound; for viability, T/C: stronger effect = lower value
Outline: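 Patient-derived tumour cells were co-cultured with HUVEC and mesenchymal stem cells as multicellular spheroids at 37 °C. They were treated with POLQ inhibitors (novobiocin, ART-558, RP6685) alone or combined with other agents. Top concentrations were at or near clinical Cmax (otherwise 10 microM; SN-38 at 1 microM), decreasing in half-log steps.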

[1] = second compound 0.0316 µM, first compound 0.0316 µM
[2] = second compound 0.0316 µM, first compound 0.1 µM
[3] = second compound 0.0316 µM, first compound 0.316 µM
[4] = second compound 0.0316 µM, first compound 1 µM
[5] = second compound 0.0316 µM, first compound 3.16 µM
[6] = second compound 0.0316 µM, first compound 10 µM
[7] = second compound 0.1 µM, first compound 0.0316 µM
[8] = second compound 0.1 µM, first compound 0.1 µM
[9] = second compound 0.1 µM, first compound 0.316 µM
[10] = second compound 0.1 µM, first compound 1 µM
[11] = second compound 0.1 µM, first compound 3.16 µM
[12] = second compound 0.1 µM, first compound 10 µM
[13] = second compound 0.316 µM, first compound 0.0316 µM
[14] = second compound 0.316 µM, first compound 0.1 µM
[15] = second compound 0.316 µM, first compound 0.316 µM
[16] = second compound 0.316 µM, first compound 1 µM
[17] = second compound 0.316 µM, first compound 3.16 µM
[18] = second compound 0.316 µM, first compound 10 µM
[19] = second compound 1 µM, first compound 0.0316 µM
[20] = second compound 1 µM, first compound 0.1 µM
[21] = second compound 1 µM, first compound 0.316 µM
[22] = second compound 1 µM, first compound 1 µM
[23] = second compound 1 µM, first compound 3.16 µM
[24] = second compound 1 µM, first compound 10 µM
[25] = second compound 3.16 µM, first compound 0.0316 µM
[26] = second compound 3.16 µM, first compound 0.1 µM
[27] = second compound 3.16 µM, first compound 0.316 µM
[28] = second compound 3.16 µM, first compound 1 µM
[29] = second compound 3.16 µM, first compound 3.16 µM
[30] = second compound 3.16 µM, first compound 10 µM
[31] = second compound 10 µM, first compound 0.0316 µM
[32] = second compound 10 µM, first compound 0.1 µM
[33] = second compound 10 µM, first compound 0.316 µM
[34] = second compound 10 µM, first compound 1 µM
[35] = second compound 10 µM, first compound 3.16 µM
[36] = second compound 10 µM, first compound 10 µM
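Further: spheroids exposed to agents for 7 days before viability reading.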
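Wherever viability, T/C is given: percent of DMSO vehicle control viability so 100% = vehicle and 0% = no viable signal.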

Work on CCCS(=O)(=O)Nc1ccc(F)c(C(=O)c2c[nH]c3ncc(-c4ccc(Cl)cc4)cc23)c1F + Cc1cccc(N(C)C(=O)C2C(O)CCN2c2nc(C)cc(C(F)(F)F)c2C#N)c1 yielded an IC50 (second compound 0.0316 µM) of 8.18 µM, an IC50 (second compound 0.1 µM) of 8.55 µM and an IC50 (second compound 0.316 µM) of 8.18 µM. For the same compound, the IC50 (second compound 1 µM) was 8.6 µM, the IC50 (second compound 3.16 µM) was 8.56 µM and the IC50 (second compound 10 µM) was 8.17 µM. For the same compound, the viability, T/C [1] was 110%, the viability, T/C [2] was 101% and the viability, T/C [3] was 120%. It also gave a viability, T/C [4] of 162%, a viability, T/C [5] of 175% and a viability, T/C [6] of 32.2%. It also gave a viability, T/C [7] of 105%, a viability, T/C [8] of 103% and a viability, T/C [9] of 126%. For the same compound, the viability, T/C [10] was 143%, the viability, T/C [11] was 199% and the viability, T/C [12] was 36.5%. For the same compound, the viability, T/C [13] was 103%, the viability, T/C [14] was 99.5% and the viability, T/C [15] was 125%. The viability, T/C [16] was 159%, the viability, T/C [17] was 195% and the viability, T/C [18] was 31.6%. The viability, T/C [19] was 109%, the viability, T/C [20] was 112% and the viability, T/C [21] was 141%. The viability, T/C [22] was 152%, the viability, T/C [23] was 172% and the viability, T/C [24] was 36.6%. The viability, T/C [25] was 124%, the viability, T/C [26] was 112% and the viability, T/C [27] was 118%. It also gave a viability, T/C [28] of 140%, a viability, T/C [29] of 181% and a viability, T/C [30] of 36.5%. The viability, T/C [31] was 117%, the viability, T/C [32] was 103% and the viability, T/C [33] was 134%. It also gave a viability, T/C [34] of 146%, a viability, T/C [35] of 175% and a viability, T/C [36] of 31.7%.

With CCc1cc2c(N3CCc4c(cc(Cn5ccnc5)cc4-c4cn(C)nc4C(F)(F)F)C3=O)cc(C)nc2c(OC)n1 + Cc1cccc(N(C)C(=O)C2C(O)CCN2c2nc(C)cc(C(F)(F)F)c2C#N)c1 the IC50 (second compound 0.0316 µM) was > 10 µM, the IC50 (second compound 0.1 µM) was > 10 µM and the IC50 (second compound 0.316 µM) was > 10 µM. For the same compound, the IC50 (second compound 1 µM) was > 10 µM, the IC50 (second compound 3.16 µM) was > 10 µM and the IC50 (second compound 10 µM) was > 10 µM. The viability, T/C [1] was 88%, the viability, T/C [2] was 96.5% and the viability, T/C [3] was 89.3%. The viability, T/C [4] was 94.1%, the viability, T/C [5] was 92.9% and the viability, T/C [6] was 102%. For the same compound, the viability, T/C [7] was 90.8%, the viability, T/C [8] was 93.2% and the viability, T/C [9] was 95.4%. It also gave a viability, T/C [10] of 97.1%, a viability, T/C [11] of 91.1% and a viability, T/C [12] of 98%. For the same compound, the viability, T/C [13] was 94.3%, the viability, T/C [14] was 94.5% and the viability, T/C [15] was 96.9%. The viability, T/C [16] was 103%, the viability, T/C [17] was 93.8% and the viability, T/C [18] was 99.8%. For the same compound, the viability, T/C [19] was 97.1%, the viability, T/C [20] was 89.5% and the viability, T/C [21] was 98.8%. The viability, T/C [22] was 94%, the viability, T/C [23] was 91.9% and the viability, T/C [24] was 88.7%. It also gave a viability, T/C [25] of 104%, a viability, T/C [26] of 100% and a viability, T/C [27] of 92.2%. For the same compound, the viability, T/C [28] was 90.5%, the viability, T/C [29] was 101% and the viability, T/C [30] was 96.9%. For the same compound, the viability, T/C [31] was 84.8%, the viability, T/C [32] was 93.5% and the viability, T/C [33] was 94.5%. For the same compound, the viability, T/C [34] was 96.1%, the viability, T/C [35] was 86% and the viability, T/C [36] was 89.8%.

Cn1ncnc1[C@H]1c2n[nH]c(=O)c3cc(F)cc(c23)N[C@@H]1c1ccc(F)cc1 + Cc1cccc(N(C)C(=O)C2C(O)CCN2c2nc(C)cc(C(F)(F)F)c2C#N)c1 was tested, and the IC50 (second compound 0.0316 µM) was > 0.1 µM, the IC50 (second compound 0.1 µM) was > 0.1 µM and the IC50 (second compound 0.316 µM) was > 0.1 µM. For the same compound, the IC50 (second compound 1 µM) was > 0.1 µM, the IC50 (second compound 3.16 µM) was > 0.1 µM and the IC50 (second compound 10 µM) was > 0.1 µM. The viability, T/C (second compound 0.0316 µM, first compound 0.000316 µM) was 103%, the viability, T/C (second compound 0.0316 µM, first compound 0.001 µM) was 87.7% and the viability, T/C (second compound 0.0316 µM, first compound 0.00316 µM) was 95.1%. For the same compound, the viability, T/C (second compound 0.0316 µM, first compound 0.01 µM) was 88.6%, the viability, T/C [1] was 99.4% and the viability, T/C [2] was 81%. For the same compound, the viability, T/C (second compound 0.1 µM, first compound 0.000316 µM) was 100%, the viability, T/C (second compound 0.1 µM, first compound 0.001 µM) was 100% and the viability, T/C (second compound 0.1 µM, first compound 0.00316 µM) was 91.6%. It also gave a viability, T/C (second compound 0.1 µM, first compound 0.01 µM) of 99.3%, a viability, T/C [7] of 85.3% and a viability, T/C [8] of 86.6%. It also gave a viability, T/C (second compound 0.316 µM, first compound 0.000316 µM) of 94.8%, a viability, T/C (second compound 0.316 µM, first compound 0.001 µM) of 97.6% and a viability, T/C (second compound 0.316 µM, first compound 0.00316 µM) of 86.4%. It also gave a viability, T/C (second compound 0.316 µM, first compound 0.01 µM) of 89.3%, a viability, T/C [13] of 117% and a viability, T/C [14] of 73.6%. For the same compound, the viability, T/C (second compound 1 µM, first compound 0.000316 µM) was 100%, the viability, T/C (second compound 1 µM, first compound 0.001 µM) was 89.6% and the viability, T/C (second compound 1 µM, first compound 0.00316 µM) was 95%. The viability, T/C (second compound 1 µM, first compound 0.01 µM) was 87.2%, the viability, T/C [19] was 108% and the viability, T/C [20] was 87.2%. It also gave a viability, T/C (second compound 3.16 µM, first compound 0.000316 µM) of 94.1%, a viability, T/C (second compound 3.16 µM, first compound 0.001 µM) of 102% and a viability, T/C (second compound 3.16 µM, first compound 0.00316 µM) of 93.8%. The viability, T/C (second compound 3.16 µM, first compound 0.01 µM) was 95.7%, the viability, T/C [25] was 93% and the viability, T/C [26] was 90.7%. It also gave a viability, T/C (second compound 10 µM, first compound 0.000316 µM) of 104%, a viability, T/C (second compound 10 µM, first compound 0.001 µM) of 81.8% and a viability, T/C (second compound 10 µM, first compound 0.00316 µM) of 97.1%. For the same compound, the viability, T/C (second compound 10 µM, first compound 0.01 µM) was 88.5%, the viability, T/C [31] was 101% and the viability, T/C [32] was 83.5%.

Source: PubChem BioAssay AID1963835 (Molecular Pharmacology Branch, DTP, NCI, 2024)
